What was measured:
[1] = target: T1, Endothelin receptor type B (Sus scrofa, UniProt P35463); test: Inhibitory activity measured against Endothelin B receptor binding to porcine cerebellum; format: tissue-based
T1 sequence (P35463 whole entry): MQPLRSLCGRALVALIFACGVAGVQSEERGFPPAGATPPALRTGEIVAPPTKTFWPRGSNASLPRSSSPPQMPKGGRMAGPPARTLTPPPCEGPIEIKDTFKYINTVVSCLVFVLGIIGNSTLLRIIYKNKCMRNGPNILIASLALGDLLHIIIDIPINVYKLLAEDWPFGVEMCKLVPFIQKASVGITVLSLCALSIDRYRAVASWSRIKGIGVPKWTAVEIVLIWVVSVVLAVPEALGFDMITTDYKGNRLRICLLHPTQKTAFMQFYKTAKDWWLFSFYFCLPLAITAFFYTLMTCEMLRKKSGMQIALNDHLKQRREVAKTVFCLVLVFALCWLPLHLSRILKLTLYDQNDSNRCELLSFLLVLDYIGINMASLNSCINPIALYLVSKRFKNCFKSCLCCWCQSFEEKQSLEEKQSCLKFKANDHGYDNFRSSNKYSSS

[2] = target: T2, Endothelin-1 receptor (Rattus norvegicus, UniProt P26684); test: Inhibitory activity against the Endothelin A receptor of rat MMQ cells; format: cell-based
T2 sequence (P26684 whole entry): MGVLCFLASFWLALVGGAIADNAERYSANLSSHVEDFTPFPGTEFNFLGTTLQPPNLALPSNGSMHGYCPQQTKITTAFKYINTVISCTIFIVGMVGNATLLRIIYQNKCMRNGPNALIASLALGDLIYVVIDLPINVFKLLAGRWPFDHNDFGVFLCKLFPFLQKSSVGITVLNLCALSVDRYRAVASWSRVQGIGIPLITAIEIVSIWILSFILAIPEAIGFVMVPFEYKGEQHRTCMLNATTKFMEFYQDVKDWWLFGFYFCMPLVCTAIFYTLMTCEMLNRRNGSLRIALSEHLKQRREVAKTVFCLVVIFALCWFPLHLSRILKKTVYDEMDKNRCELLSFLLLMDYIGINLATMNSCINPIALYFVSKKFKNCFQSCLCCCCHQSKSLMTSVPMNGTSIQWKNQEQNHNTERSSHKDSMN

[3] = target: T3, Endothelin receptor (Rattus norvegicus, UniProt P26684+P21451); test: Inhibition of phosphoinositol hydrolysis of MMQ cells.; format: functional, cell-based
T3 sequence (P26684 whole entry): T2 sequence (P26684 whole entry)
T3 sequence (P21451 whole entry): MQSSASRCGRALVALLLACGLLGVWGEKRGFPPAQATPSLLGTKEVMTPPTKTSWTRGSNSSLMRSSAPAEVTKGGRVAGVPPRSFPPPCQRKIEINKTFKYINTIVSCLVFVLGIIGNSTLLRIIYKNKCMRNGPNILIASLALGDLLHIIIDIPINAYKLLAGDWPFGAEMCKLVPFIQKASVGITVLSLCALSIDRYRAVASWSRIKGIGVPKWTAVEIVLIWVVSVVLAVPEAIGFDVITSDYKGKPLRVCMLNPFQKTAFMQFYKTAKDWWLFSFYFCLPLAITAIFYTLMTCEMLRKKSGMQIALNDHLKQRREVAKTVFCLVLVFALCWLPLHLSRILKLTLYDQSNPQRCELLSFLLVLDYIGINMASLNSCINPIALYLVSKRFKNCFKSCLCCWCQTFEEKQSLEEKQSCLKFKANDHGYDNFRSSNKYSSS

SMILES | IC50 [1] [nM] | IC50 [2] [nM] | IC50 [3] [nM]
COc1ccc([C@@H]2[C@@H](C(=O)O)[C@H](c3ccc4c(c3)OCO4)CN2CCc2ccccn2)cc1 | 2360 | 900 | –
CCCC#CCN1C[C@@H](c2ccc3c(c2)OCO3)[C@H](C(=O)O)[C@H]1c1ccc(OC)cc1 | 3590 | 765 | –
COc1ccc([C@@H]2[C@@H](C(=O)O)[C@H](c3ccc4c(c3)OCO4)CN2C(=O)Nc2ccccc2)cc1 | 3510 | 2430 | –
COc1ccc([C@@H]2[C@@H](C(=O)O)[C@H](c3ccc4c(c3)OCO4)CN2CC(=O)NCC(C)C)cc1 | 184 | 8.2 | 9.22
COc1ccc([C@@H]2[C@@H](C(=O)O)[C@H](c3ccc4c(c3)OCO4)CN2CC(=O)N(CC(C)C)CC(C)C)cc1 | 1820 | 16.2 | 0.6
CCCCCCN1C[C@@H](c2ccc3c(c2)OCO3)[C@H](C(=O)O)[C@H]1c1ccc(OC)cc1 | 23300 | 2870 | –
CCCCCCN(C)C(=O)CN1C[C@@H](c2ccc3c(c2)OCO3)[C@H](C(=O)O)[C@H]1c1ccc(OC)cc1 | 404 | 7.61 | 1
CCCCNC(=O)N1C[C@@H](c2ccc3c(c2)OCO3)[C@H](C(=O)O)[C@H]1c1ccc(OC)cc1 | 11100 | 684 | –
CCCCN(CCCC)CCN1C[C@@H](c2ccc3c(c2)OCO3)[C@H](C(=O)O)[C@H]1c1ccc(OC)cc1 | 1590 | 794 | –
CCCC(CCC)C(=O)CN1C[C@@H](c2ccc3c(c2)OCO3)[C@H](C(=O)O)[C@H]1c1ccc(OC)cc1 | 283 | 85 | –
COc1ccc([C@@H]2[C@@H](C(=O)O)[C@H](c3ccc4c(c3)OCO4)CN2CC(=O)NC2CCCC2)cc1 | 307 | 16.2 | 23.8
COc1ccc([C@@H]2[C@@H](C(=O)O)[C@H](c3ccc4c(c3)OCO4)CN2CCOCC(C)C)cc1 | 8380 | 437 | –
COc1ccc([C@@H]2[C@@H](C(=O)O)[C@H](c3ccc4c(c3)OCO4)CN2CC(=O)N(C)Cc2ccccc2)cc1 | 1680 | 769 | –
COc1ccc([C@@H]2[C@@H](C(=O)O)[C@H](c3ccc4c(c3)OCO4)CN2C(=O)c2ccco2)cc1 | 40300 | 5220 | –
COc1ccc([C@@H]2[C@@H](C(=O)O)[C@H](c3ccc4c(c3)OCO4)CN2CC(=O)N(CCC(C)C)CCC(C)C)cc1 | 41 | 0.43 | –
COc1ccc([C@@H]2[C@@H](C(=O)O)[C@H](c3ccc4c(c3)OCO4)CN2CC(=O)N(C)c2ccccc2)cc1 | 1180 | 50.2 | –
CCCOCCN1C[C@@H](c2ccc3c(c2)OCO3)[C@H](C(=O)O)[C@H]1c1ccc(OC)cc1 | 4970 | 108 | –
CCCCS(=O)(=O)N1C[C@@H](c2ccc3c(c2)OCO3)[C@H](C(=O)O)[C@H]1c1ccc(OC)cc1 | 6180 | 1240 | –
CC[S+]([O-])CCN1C[C@@H](c2ccc3c(c2)OCO3)[C@H](C(=O)O)[C@H]1c1ccc(OC)cc1 (stereo not given in full) | 834 | 44 | –
COc1ccc([C@@H]2[C@@H](C(=O)O)[C@H](c3ccc4c(c3)OCO4)CN2CC(N)=O)cc1 | 3270 | – | –
COc1ccc([C@@H]2[C@@H](C(=O)O)[C@H](c3ccc4c(c3)OCO4)CN2CC(=O)N2CCCCC2)cc1 | 3040 | 350 | –
COc1ccc(NC(=O)N2C[C@@H](c3ccc4c(c3)OCO4)[C@H](C(=O)O)[C@H]2c2ccc(OC)cc2)cc1 | 3790 | 781 | –
COc1ccc([C@@H]2[C@@H](C(=O)O)[C@H](c3ccc4c(c3)OCO4)CN2CCOc2ccccc2)cc1 | 3400 | 885 | –

SMILES | IC50 [1] [nM] | IC50 [2] [nM] | IC50 [3] [nM]
COc1ccc([C@@H]2[C@@H](C(=O)O)[C@H](c3ccc4c(c3)OCO4)CN2CC(=O)N(C)C2CCCCC2)cc1 | 806 | 23.8 | 2.06
COc1ccc([C@@H]2[C@@H](C(=O)O)[C@H](c3ccc4c(c3)OCO4)CN2C(=O)N2CCOCC2)cc1 | 5020 | 1080 | –
CCCCOCCN1C[C@@H](c2ccc3c(c2)OCO3)[C@H](C(=O)O)[C@H]1c1ccc(OC)cc1 | 3830 | 220 | –
CCCS(=O)(=O)CCN1C[C@@H](c2ccc3c(c2)OCO3)[C@H](C(=O)O)[C@H]1c1ccc(OC)cc1 | 750 | 37 | –
CCCCN(CCCC)C(=O)N1C[C@@H](c2ccc3c(c2)OCO3)[C@H](C(=O)O)[C@H]1c1ccc(OC)cc1 | 1470 | 396 | –
COc1ccc([C@@H]2[C@@H](C(=O)O)[C@H](c3ccc4c(c3)OCO4)CN2Cc2ccc(F)cc2)cc1 | 7930 | 4320 | –
C#CCN(C)C(=O)CN1C[C@@H](c2ccc3c(c2)OCO3)[C@H](C(=O)O)[C@H]1c1ccc(OC)cc1 | 4000 | 106 | –
CCCCCN(C)C(=O)CN1C[C@@H](c2ccc3c(c2)OCO3)[C@H](C(=O)O)[C@H]1c1ccc(OC)cc1 | 624 | 5.78 | 5.64
CCCCC(=O)CN1C[C@@H](c2ccc3c(c2)OCO3)[C@H](C(=O)O)[C@H]1c1ccc(OC)cc1 | 2430 | 163 | –
COc1ccc([C@@H]2[C@@H](C(=O)O)[C@H](c3ccc4c(c3)OCO4)CN2C(=O)COc2ccc(F)cc2)cc1 | 12700 | – | –
COc1ccc([C@@H]2[C@@H](C(=O)O)[C@H](c3ccc4c(c3)OCO4)CN2CC(=O)N(C)CC(C)C)cc1 | 1050 | 1.88 | 0.28
CCCN(CCC)C(=O)CCN1C[C@@H](c2ccc3c(c2)OCO3)[C@H](C(=O)O)[C@H]1c1ccc(OC)cc1 | 4200 | 121 | –
COCCNC(=O)CN1C[C@@H](c2ccc3c(c2)OCO3)[C@H](C(=O)O)[C@H]1c1ccc(OC)cc1 | 3730 | 178 | –
COc1ccc([C@@H]2[C@@H](C(=O)O)[C@H](c3ccc4c(c3)OCO4)CN2C/C=C/CC(C)C)cc1 | 27300 | 1630 | –
COCCOCCN1C[C@@H](c2ccc3c(c2)OCO3)[C@H](C(=O)O)[C@H]1c1ccc(OC)cc1 | 3390 | 682 | –
CCOCCN1C[C@@H](c2ccc3c(c2)OCO3)[C@H](C(=O)O)[C@H]1c1ccc(OC)cc1 | 9010 | 520 | –
CCN(CC)C(=O)CN1C[C@@H](c2ccc3c(c2)OCO3)[C@H](C(=O)O)[C@H]1c1ccc(OC)cc1 | 5250 | 32.9 | 2.26
CCCCN(CCCC)CC(=O)N1C[C@@H](c2ccc3c(c2)OCO3)[C@H](C(=O)O)[C@H]1c1ccc(OC)cc1 | 29400 | 6810 | –
CCCCN(C(=O)CN1C[C@@H](c2ccc3c(c2)OCO3)[C@H](C(=O)O)[C@H]1c1ccc(OC)cc1)c1ccccc1 | 306 | 0.81 | –
CCCCCN(CCCCC)C(=O)CN1C[C@@H](c2ccc3c(c2)OCO3)[C@H](C(=O)O)[C@H]1c1ccc(OC)cc1 | 313 | 0.56 | –
CCCCN(CCCC)C(=O)C(C)N1CC(c2ccc3c(c2)OCO3)C(C(=O)O)C1c1ccc(OC)cc1 (stereo not given) | 315 | 0.46 | 1.34
COc1ccc([C@@H]2[C@@H](C(=O)O)[C@H](c3ccc4c(c3)OCO4)CN2CC(=O)N(C)CC(C)(C)C)cc1 | 1800 | 112 | –
CCCCN(CC)C(=O)CN1C[C@@H](c2ccc3c(c2)OCO3)[C@H](C(=O)O)[C@H]1c1ccc(OC)cc1 | 531 | 0.85 | 0.33

From ChEMBL document CHEMBL1129506, “2,4-Diarylpyrrolidine-3-carboxylic acids--potent ETA selective endothelin receptor antagonists. 1. Discovery of A-127722” (J Med Chem, 1996)
